In patent US20170190671A1, “BIS(ARYL)CATECHOL DERIVATIVES AS HERBICIDES” (E I DU PONT DE NEMOURS AND COMPANY, priority 2014, published 2017):

Legend:
Assay type in all cases: in vivo
[1] = tested on: sandbur (southern sandbur, Cenchrus echinatus); test: Test E postemergence; conditions: scale 0 to 100
Text: (§1) Seeds of plant species selected from corn (Zea mays), soybean (Glycine max), velvetleaf (Abutilon theophrasti), cocklebur (common cocklebur, Xanthium strumarium), lambsquarters (Chenopodium album), wild poinsettia (Euphorbia heterophylla), palmer pigweed (Amaranthus palmeri), waterhemp (common waterhemp, Amaranthus rudis), surinam grass (Brachiaria decumbens), large (Lg) crabgrass (Digitaria sanguinalis), Brazilian crabgrass (Digitaria horizontalis), fall panicum (Panicum dichotomiflorum), giant foxtail (Setaria faberii), green foxtail (Setaria viridis), goosegrass (Eleusine indica), johnsongrass (Sorghum halepense), ragweed (common ragweed, Ambrosia elatior), barnyardgrass (Echinochloa crus-galli), sandbur (southern sandbur, Cenchrus echinatus), arrowleaf sida (Sida rhombifolia), Italian ryegrass (Lolium multiflorum), dayflower (Virginia (VA) dayflower, Commelina virginica), field bindweed (Convolvulus arvensis), morningglory (Ipomoea coccinea), nightshade (eastern black nightshade, Solanum ptycanthum), kochia (Kochia scoparia), yellow nutsedge (Cyperus esculentus), horseweed (Conyza canadensis), and hairy beggarticks (Bidens pilosa), were planted into a silt loam soil and treated preemergence with test chemicals formulated in a non-phytotoxic solvent mixture which included a surfactant.
(§2) At the same time, plants from these crop and weed species and also waterhemp_RES1, (ALS & Triazine resistant common waterhemp, Amaranthus rudis), and waterhemp_RES2, (ALS & HPPD resistant common waterhemp, Amaranthus rudis) were planted in pots containing Redi-Earth® planting medium (Scotts Company, 14111 Scottslawn Road, Marysville, Ohio 43041) comprising spaghnum peat moss, vermiculite, wetting agent and starter nutrients were treated with postemergence applications of test chemicals formulated in the same manner. Plants ranged in height from 2 to 18 cm for postemergence treatments (1- to 4-leaf stage). Treated plants and controls were maintained in a greenhouse for 14 to 21 days, after which time all species were compared to controls and visually evaluated. Plant response ratings, summarized in Table E, are based on a scale of 0 to 100 where 0 is no effect and 100 is complete control. A dash (-) response means no test result.

[2] = tested on: palmer pigweed (Amaranthus palmeri); test: Test E postemergence; conditions: scale 0 to 100
Text: as §1, §2

[3] = tested on: waterhemp_RES1 (ALS & Triazine resistant common waterhemp, Amaranthus rudis); test: Test E postemergence; conditions: scale 0 to 100
Text: as §1, §2

[4] = tested on: horseweed (Conyza canadensis); test: Test E postemergence; conditions: scale 0 to 100
Text: as §1, §2

[5] = tested on: wild poinsettia (Euphorbia heterophylla); test: Test E postemergence; conditions: scale 0 to 100
Text: as §1, §2

[6] = tested on: waterhemp_RES2 (ALS & HPPD resistant common waterhemp, Amaranthus rudis); test: Test E postemergence; conditions: scale 0 to 100
Text: as §1, §2

[7] = tested on: Brazilian crabgrass (Digitaria horizontalis); test: Test E postemergence; conditions: scale 0 to 100
Text: as §1, §2

[8] = tested on: fall panicum (Panicum dichotomiflorum); test: Test E postemergence; conditions: scale 0 to 100
Text: as §1, §2

[9] = tested on: Italian ryegrass (Lolium multiflorum); test: Test E postemergence; conditions: scale 0 to 100
Text: as §1, §2

[10] = tested on: hairy beggarticks (Bidens pilosa); test: Test E postemergence; conditions: scale 0 to 100
Text: as §1, §2

[11] = tested on: ragweed (common ragweed, Ambrosia elatior); test: Test E postemergence; conditions: scale 0 to 100
Text: as §1, §2

[12] = tested on: barnyardgrass (Echinochloa crus-galli); test: Test E postemergence; conditions: scale 0 to 100
Text: as §1, §2

[13] = tested on: field bindweed (Convolvulus arvensis); test: Test E postemergence; conditions: scale 0 to 100
Text: as §1, §2

kochia (Kochia scoparia) = test: Test E postemergence; conditions: scale 0 to 100
Text: as §1, §2

[14] = tested on: dayflower (Virginia (VA) dayflower, Commelina virginica); test: Test E postemergence; conditions: scale 0 to 100
Text: as §1, §2

soybean (Glycine max) = test: Test E postemergence; conditions: scale 0 to 100
Text: as §1, §2

corn (Zea mays) = test: Test E postemergence; conditions: scale 0 to 100
Text: as §1, §2

[15] = tested on: waterhemp (common waterhemp, Amaranthus rudis); test: Test E postemergence; conditions: scale 0 to 100
Text: as §1, §2

[16] = tested on: arrowleaf sida (Sida rhombifolia); test: Test E postemergence; conditions: scale 0 to 100
Text: as §1, §2

[17] = tested on: horseweed (Conyza canadensis); test: Test E preemergence; conditions: 31 g ai/ha, scale 0 to 100
In short: (§3)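 Preemergence: seeds in silt loam treated with compound in non-phytotoxic solvent with surfactant. Postemergence: plants at 1- to 4-leaf stage (2–18 cm) in peat-based medium sprayed likewise. Greenhouse 14–21 days, then visual rating vs controls, 0 (no effect) to 100 (complete control).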

[18] = tested on: wild poinsettia (Euphorbia heterophylla); test: Test E preemergence; conditions: scale 0 to 100
In short: as §3

SMILES: Fc1cccc(Oc2ncc(C(F)(F)F)cn2)c1Oc1ncc(Cl)cn1 [Compound 42, 5-chloro-2-[2-fluoro-6-[[5-(trifluoromethyl)-2-pyrimidinyl]oxy]phenoxy]pyrimidine]
- Plant response rating, Sandbur ([1]; 16 g ai/ha): 0
- Plant response rating, Sandbur ([1]; 31 g ai/ha): 0
- Plant response rating, Sandbur ([1]; 62 g ai/ha): 0
- Plant response rating, Sandbur ([1]; 125 g ai/ha): 10
- Plant response rating, Pigweed, Palmer ([2]; 16 g ai/ha): 80
- Plant response rating, Pigweed, Palmer ([2]; 31 g ai/ha): 85
- Plant response rating, Pigweed, Palmer ([2]; 62 g ai/ha): 95
- Plant response rating, Pigweed, Palmer ([2]; 125 g ai/ha): 100
- Plant response rating, Waterhemp_RES1 ([3]; 16 g ai/ha): 60
- Plant response rating, Waterhemp_RES1 ([3]; 31 g ai/ha): 75
- Plant response rating, Waterhemp_RES1 ([3]; 62 g ai/ha): 75
- Plant response rating, Waterhemp_RES1 ([3]; 125 g ai/ha): 90
- Plant response rating, Horseweed ([4]; 16 g ai/ha): 0
- Plant response rating, Horseweed ([4]; 31 g ai/ha): 0
- Plant response rating, Horseweed ([4]; 62 g ai/ha): 10
- Plant response rating, Horseweed ([4]; 125 g ai/ha): 10
- Plant response rating, Poinsettia, Wild ([5]; 16 g ai/ha): 50
- Plant response rating, Poinsettia, Wild ([5]; 31 g ai/ha): 60
- Plant response rating, Poinsettia, Wild ([5]; 62 g ai/ha): 70
- Plant response rating, Poinsettia, Wild ([5]; 125 g ai/ha): 70
- Plant response rating, Waterhemp_RES2 ([6]; 16 g ai/ha): 50
- Plant response rating, Waterhemp_RES2 ([6]; 31 g ai/ha): 65
- Plant response rating, Waterhemp_RES2 ([6]; 62 g ai/ha): 85
- Plant response rating, Waterhemp_RES2 ([6]; 125 g ai/ha): 95
- Plant response rating, Crabgrass, Brazil ([7]; 16 g ai/ha): 10
- Plant response rating, Crabgrass, Brazil ([7]; 31 g ai/ha): 10
- Plant response rating, Crabgrass, Brazil ([7]; 62 g ai/ha): 20
- Plant response rating, Crabgrass, Brazil ([7]; 125 g ai/ha): 30
- Plant response rating, Panicum, Fall ([8]; 16 g ai/ha): 10
- Plant response rating, Panicum, Fall ([8]; 31 g ai/ha): 15
- Plant response rating, Panicum, Fall ([8]; 62 g ai/ha): 20
- Plant response rating, Panicum, Fall ([8]; 125 g ai/ha): 30
- Plant response rating, Ryegrass, Italian ([9]; 16 g ai/ha): 0
- Plant response rating, Ryegrass, Italian ([9]; 31 g ai/ha): 10
- Plant response rating, Ryegrass, Italian ([9]; 62 g ai/ha): 20
- Plant response rating, Ryegrass, Italian ([9]; 125 g ai/ha): 40
- Plant response rating, Beggarticks ([10]; 16 g ai/ha): 50
- Plant response rating, Beggarticks ([10]; 31 g ai/ha): 60
- Plant response rating, Beggarticks ([10]; 62 g ai/ha): 60
- Plant response rating, Beggarticks ([10]; 125 g ai/ha): 70
- Plant response rating, Ragweed ([11]; 16 g ai/ha): 10
- Plant response rating, Ragweed ([11]; 31 g ai/ha): 25
- Plant response rating, Ragweed ([11]; 62 g ai/ha): 50
- Plant response rating, Ragweed ([11]; 125 g ai/ha): 60
- Plant response rating, Barnyardgrass ([12]; 16 g ai/ha): 0
- Plant response rating, Barnyardgrass ([12]; 31 g ai/ha): 0
- Plant response rating, Barnyardgrass ([12]; 62 g ai/ha): 10
- Plant response rating, Barnyardgrass ([12]; 125 g ai/ha): 20
- Plant response rating, Field Bindweed ([13]; 16 g ai/ha): 40
- Plant response rating, Field Bindweed ([13]; 31 g ai/ha): 50
- Plant response rating, Field Bindweed ([13]; 62 g ai/ha): 60
- Plant response rating, Field Bindweed ([13]; 125 g ai/ha): 70
- Plant response rating, Kochia (kochia (Kochia scoparia); 16 g ai/ha): 70
- Plant response rating, Kochia (kochia (Kochia scoparia); 31 g ai/ha): 80
- Plant response rating, Kochia (kochia (Kochia scoparia); 62 g ai/ha): 95
- Plant response rating, Kochia (kochia (Kochia scoparia); 125 g ai/ha): 95
- Plant response rating, Dayflower, VA ([14]; 16 g ai/ha): 35
- Plant response rating, Dayflower, VA ([14]; 31 g ai/ha): 50
- Plant response rating, Dayflower, VA ([14]; 62 g ai/ha): 70
- Plant response rating, Dayflower, VA ([14]; 125 g ai/ha): 75
- Plant response rating, Soybean (soybean (Glycine max); 16 g ai/ha): 50
- Plant response rating, Soybean (soybean (Glycine max); 31 g ai/ha): 60
- Plant response rating, Soybean (soybean (Glycine max); 62 g ai/ha): 95
- Plant response rating, Soybean (soybean (Glycine max); 125 g ai/ha): 95
- Plant response rating, Corn (corn (Zea mays); 16 g ai/ha): 5
- Plant response rating, Corn (corn (Zea mays); 31 g ai/ha): 10
- Plant response rating, Corn (corn (Zea mays); 62 g ai/ha): 10
- Plant response rating, Corn (corn (Zea mays); 125 g ai/ha): 15
- Plant response rating, Waterhemp ([15]; 16 g ai/ha): 75
- Plant response rating, Waterhemp ([15]; 31 g ai/ha): 85
- Plant response rating, Waterhemp ([15]; 62 g ai/ha): 90
- Plant response rating, Waterhemp ([15]; 125 g ai/ha): 95
- Plant response rating, Arrowleaf Sida ([16]; 16 g ai/ha): 75
- Plant response rating, Arrowleaf Sida ([16]; 31 g ai/ha): 85
- Plant response rating, Arrowleaf Sida ([16]; 62 g ai/ha): 95
- Plant response rating, Arrowleaf Sida ([16]; 125 g ai/ha): 98
- Plant response rating, Horseweed [17]: 0
- Plant response rating, Poinsettia, Wild ([18]; 16 g ai/ha): 20
- Plant response rating, Poinsettia, Wild ([18]; 31 g ai/ha): 20
- Plant response rating, Poinsettia, Wild ([18]; 62 g ai/ha): 80
- Plant response rating, Poinsettia, Wild ([18]; 125 g ai/ha): 100
